The test system of data set [1] is Glutamic Acid at Neuromuscular Junctions of Crayfish (opener muscles of the first walking legs). Kind of data set: Blocking effects against Glutamic Acid at Neuromuscular Junctions of Crayfish. The settings on record: 5-minute pretreatment, L-glutamic acid 10^-4 M.
Data set [2] concerns Anemic Decerebrate Rigidity Sample (EMG, M. triceps brachii). Kind of data set: Effects on Anemic Decerebrate Rigidity Sample (suppression of EMG of forelimb muscle). In kind it is in vivo, Wistar male rats. The following applies: iv, 10 min; rat, 3 mg/kg in physiological saline through femoral vein, 10 minutes after administration; read-out: Suppression rate.
Data set [3] in a line: Acute Toxicity (up-and-down method). The following applies: mouse, in vivo, iv (caudal vein), ddN male mice. The procedure:
Using ddN male mice, the acute toxicity level of each test compound was determined in accordance with an up-and-down method. Some of the test compounds used were dissolved in physiological saline and administered through the caudal vein.

The conditions of data set [4]: reported by Nikolova; cited from earlier work.
In data set [5] the test system is neuraxial muscle relaxing effect. Put plainly: Neuraxial muscle relaxing effect, experiment conducted by the inventors. Type of data set: in vivo.
For a further data set, the system named is higher animals. The settings on record: Oleny et al; cited from earlier work.
For the next data set, the system named is glutamic acid. The settings on record: in higher animals; cited from earlier work.
Where [6] appears, read: test compound 2 × 10^-4 M, 200 µM.
[7] abbreviates: test compound 2 × 10^-5 M, 20 µM.

Structures can show the parent of a compound that is named as a salt.

`C[C@@H]1[C@H](c2ccccc2)OC(=O)N1CCN1CCCCC1.Cl` (racemic) [Comparative compound 2, (4RS,5SR)-4-methyl-5-phenyl-3-(2-piperidinoethyl)-1,3-oxazolidine-2-one hydrochloride, reference compound]: in data set [1] (setting [6]), the “Blocking rate against glutamic acid” value was 0%. The inhibition in vivo at 3 mg/kg in data set [2] amounted to 3.6%.

Consider `C[C@@H]1[C@@H](c2ccccc2)OC(=O)N1CCN1CCCCC1` (racemic) [Comparative compound 3, (4RS,5RS)-4-methyl-5-phenyl-3-(2-piperidinoethyl)-1,3-oxazolidine-2-one hydrochloride, reference compound], for which, in data set [2], the inhibition in vivo at 3 mg/kg came out at 2.2%. In the case of `C[C@@H]1[C@H](c2ccccc2)OC(=O)N1CCN1CCCC1.Cl` (racemic) [Comparative compound 4, (4RS,5SR)-4-methyl-5-phenyl-3-(2-pyrrolidinoethyl)-1,3-oxazolidine-2-one hydrochloride, reference compound], in data set [1] (setting [6]), the “Blocking rate against glutamic acid” value is 45%. Also, in data set [2], the inhibition in vivo at 3 mg/kg was 1%. Turning to `C[C@@H]1[C@@H](c2ccccc2)OC(=O)N1CCN1CCCC1` (racemic) [Comparative compound 5, (4RS,5RS)-4-methyl-5-phenyl-3-(2-pyrrolidinoethyl)-1,3-oxazolidine-2-one hydrochloride, reference compound], the inhibition in vivo at 3 mg/kg in data set [2] turned out to be 3%. For `CC(C)[C@@H]1[C@H](c2ccccc2)OC(=O)N1CCCN1CCCCC1` (racemic) [Compound 1, (4RS,5SR)-4-(1-methylethyl)-5-phenyl-3-(3-piperidinopropyl)-1,3-oxazolidine-2-one], the LD50 (commonly the dose at which mortality reaches 50%) in data set [3] is 29.7 mg/kg. Besides, the inhibition in vivo at 3 mg/kg in data set [2] worked out at 12%. The compound `CC(C)[C@@H]1[C@@H](c2ccccc2)OC(=O)N1CCCN1CCCCC1` (racemic) [Compound 2, (4RS,5RS)-4-(1-methylethyl)-5-phenyl-3-(3-piperidinopropyl)-1,3-oxazolidine-2-one] returned an LD50 in data set [3] of 18.8 mg/kg. For the same compound, the inhibition in vivo at 3 mg/kg in data set [2] was 19.8%. Regarding `CC(C)C[C@@H]1[C@H](c2ccccc2)OC(=O)N1CCCN1CCCCC1` (racemic) [Compound 3, (4RS,5SR)-4-(2-methylpropyl)-5-phenyl-3-(3-piperidinopropyl)-1,3-oxazolidine-2-one], the LD50 in data set [3] was found to be 55.5 mg/kg. For the same compound, the “Blocking rate against glutamic acid” value in data set [1] (setting [6]) is recorded as 89%. The inhibition in vivo at 3 mg/kg in data set [2] was found to be 18%. `CC(C)C[C@@H]1[C@@H](c2ccccc2)OC(=O)N1CCCN1CCCCC1` (racemic) [Compound 4, (4RS,5RS)-4-(2-methylpropyl)-5-phenyl-3-(3-piperidinopropyl)-1,3-oxazolidine-2-one]: the LD50 in data set [3] came to 29.9 mg/kg. For the same compound, in data set [1] (setting [6]), the “Blocking rate against glutamic acid” value was 88%. Besides, the inhibition in vivo at 3 mg/kg in data set [2] was determined as 21.2%.

Compound `CC(C)[C@@H]1[C@@H](c2ccccc2)OC(=O)N1CCCN1CCCC1` (racemic) [Compound 10, (4RS, 5RS)-4-(1-methylethyl)-5-phenyl-3-(3-pyrrolidinopropyl)-1,3-oxazolidine-2-one] came in with an LD50 in data set [3] of 54.6 mg/kg. Moreover, the inhibition in vivo at 3 mg/kg in data set [2] turned out to be 18.7%. As to `CC(C)C[C@@H]1[C@H](c2ccccc2)OC(=O)N1CCCN1CCCC1` (racemic) [Compound 13, (4RS,5SR)-4-(2-methylpropyl)-5-phenyl-3-(3-pyrrolidinopropyl)-1,3-oxazolidine-2-one], the LD50 in data set [3] is 75.1 mg/kg. Moreover, the “Blocking rate against glutamic acid” value in data set [1] (setting [6]) was determined as 80%. Compound `CC(C)C[C@@H]1[C@@H](c2ccccc2)OC(=O)N1CCCN1CCCC1` (racemic) [Compound 14, (4RS,5RS)-4-(2-methylpropyl)-5-phenyl-3-(3-pyrrolidinopropyl)-1,3-oxazolidine-2-one] showed an LD50 in data set [3] of 53.2 mg/kg. Further, the inhibition in vivo at 3 mg/kg in data set [2] came out at 10.2%.

In data set [3], `Cc1ccc([C@@H]2OC(=O)N(CCCN3CCCCC3)[C@@H]2CC(C)C)cc1` (racemic) [Compound 25, (4RS,5SR)-5-(4-methylphenyl)-4-(2-methylpropyl)-3-(3-piperidinopropyl)-1,3-oxazolidine-2-one] came in with a median lethal dose (LD50) of 34.9 mg/kg. Moreover, in data set [2], the inhibition in vivo at 3 mg/kg came out at 10.9%. For `COc1ccc([C@@H]2OC(=O)N(CCCN3CCCCC3)[C@@H]2CC(C)C)cc1` (racemic) [Compound 27, (4RS,5SR)-5-(4-methoxyphenyl)-4-(2-methylpropyl)-3-(3-piperidinopropyl)-1,3-oxazolidine-2-one] the same measures were 39.8 mg/kg and 8.4%. For `CC(C)C[C@@H]1[C@H](c2ccc(F)cc2)OC(=O)N1CCCN1CCCCC1` (racemic) [Compound 29, (4RS,5SR)-5-(4-fluorophenyl)-4-(2-methylpropyl)-3-(3-piperidinopropyl)-1,3-oxazolidine-2-one] the same measures were 66.1 mg/kg and 9.9%. Consider `CCCC[C@@H]1[C@@H](c2ccccc2)OC(=O)N1CCCN1CCCCC1` (racemic) [Compound 35, (4RS,5RS)-4-butyl-5-phenyl-3-(3-piperidinopropyl)-1,3-oxazolidine-2-one], for which the “Blocking rate against glutamic acid” value in data set [1] (setting [7]) stood at 68%. The same measure, in the same setting: the value for `CCCC[C@@H]1[C@H](c2ccccc2)OC(=O)N1CCCN1CCCCC1` (racemic) [Compound 36, (4RS,5SR)-4-butyl-5-phenyl-3-(3-piperidinopropyl)-1,3-oxazolidine-2-one] was 53%; that for `CCCCC[C@@H]1[C@@H](c2ccccc2)OC(=O)N1CCCN1CCCCC1` (racemic) [Compound 37, (4RS,5RS)-4-pentyl-5-phenyl-3-(3-piperidinopropyl)-1,3-oxazolidine-2-one] was 58%. The compound `CC(C)CC[C@@H]1[C@H](c2ccccc2)OC(=O)N1CCCN1CCCCC1` (racemic) [Compound 40, (4RS,5SR)-4-(3-methylbutyl)-5-phenyl-3-(3-piperidinopropyl)-1,3-oxazolidine-2-one] displayed an LD50 in data set [3] of 53.6 mg/kg. The “Blocking rate against glutamic acid” value in data set [1] (setting [7]) is on record as 61%. On to `CCCCCC[C@@H]1[C@@H](c2ccccc2)OC(=O)N1CCCN1CCCCC1` (racemic) [Compound 41, (4RS,5RS)-4-hexyl-5-phenyl-3-(3-piperidinopropyl)-1,3-oxazolidine-2-one], for which, in data set [1] (setting [7]), the “Blocking rate against glutamic acid” value is 69%. With `CC1C(c2ccccc2)OC(=O)N1CCN1CCCCC1` (stereo not shown) [4-methyl-5-phenyl-3-(2-piperidinoethyl)-1,3-oxazolidine-2-one], in data set [4], the analgesic effect result is reported as “has an analgesic effect”, the anti-convulsion effect result is “exerts no anti-convulsion” and the “neuraxial muscle relaxing effect” value is on record as “exerts no anti-convulsion nor neuraxial muscle relaxing effects”. Also, in data set [5], the “neuraxial muscle relaxing effect” value is “extremely weak”. Consider `Cc1ccc(C(=O)C(C)CN2CCCCC2)cc1` (stereo not shown) [Comparative compound 1, toluperisone hydrochloride, reference compound], for which the inhibition in vivo at 3 mg/kg in data set [2] turned out to be 4.8%. For `CC(C)C[C@H]1[C@@H](c2ccccc2)OC(=O)N1CCCN1CCCCC1` [Compound 5, (4S,5R)-4-(2-methylpropyl)-5-phenyl-3-(3-piperidinopropyl)-1,3-oxazolidine-2-one], in data set [3], the LD50 turned out to be 69 mg/kg. In addition, the “Blocking rate against glutamic acid” value in data set [1] (setting [6]) stood at 91%. In addition, the inhibition in vivo at 3 mg/kg in data set [2] amounted to 37.7%. Regarding `CC(C)C[C@@H]1[C@H](c2ccccc2)OC(=O)N1CCCN1CCCCC1` [Compound 6, (4R,5S)-4-(2-methylpropyl)-5-phenyl-3-(3-piperidinopropyl)-1,3-oxazolidine-2-one], the inhibition in vivo at 3 mg/kg in data set [2] was 14.9%. In data set [3], `CC(C)C[C@H]1[C@H](c2ccccc2)OC(=O)N1CCCN1CCCCC1` [Compound 7, (4S,5S)-4-(2-methylpropyl)-5-phenyl-3-(3-piperidinopropyl)-1,3-oxazolidine-2-one] returned an LD50 of 30.4 mg/kg. The “Blocking rate against glutamic acid” value in data set [1] (setting [6]) was found to be 92%. Further, in data set [2], the inhibition in vivo at 3 mg/kg worked out at 64.8%. As to `CC(C)C[C@@H]1[C@@H](c2ccccc2)OC(=O)N1CCCN1CCCCC1` [Compound 8, (4R,5R)-4-(2-methylpropyl)-5-phenyl-3-(3-piperidinopropyl)-1,3-oxazolidine-2-one], the inhibition in vivo at 3 mg/kg in data set [2] is 12%. For the compound `CC(C)C[C@H]1[C@@H](c2ccccc2)OC(=O)N1CCCN1CCCCCC1` [Compound 17, (4S,5R)-4-(2-methylpropyl)-3-[3-(perhydroazepine-1-yl-)propyl]-5-phenyl-1,3-oxazolidine-2-one], in data set [3], the LD50 was 40.1 mg/kg. The “Blocking rate against glutamic acid” value in data set [1] (setting [6]) was 90%. Besides, the inhibition in vivo at 3 mg/kg in data set [2] is 93%. In the case of `C/C(=C/C=C/[C@@H](C)C(=O)O)[C@H]1CN[C@H](C(=O)O)[C@H]1CC(=O)O` [domoic acid], in the data set on higher animals, the “effects induced from administration” value was “dystropy, rigidity, tremor, convulsion and the like are induced”. Further, in the data set on glutamic acid, the “agonist for glutamic acid” value is listed as “extremely strong agonist”.

In the case of `N[C@H](C(=O)O)c1cc(=O)[nH]o1` [ibotenic acid], the “effects induced from administration” value with higher animals is “dystropy, rigidity, tremor, convulsion and the like are induced”. For the same compound, the “agonist for glutamic acid” value with glutamic acid is “extremely strong agonist”. On to `C=C(C)[C@H]1CN[C@H](C(=O)O)[C@H]1CC(=O)O` [kainic acid], for which the “effects induced from administration” value in the data set with higher animals was “dystropy, rigidity, tremor, convulsion and the like are induced”. The “agonist for glutamic acid” value in the data set with glutamic acid is recorded as “extremely strong agonist”. As to `N[C@@H](Cn1oc(=O)[nH]c1=O)C(=O)O` [quisqualic acid], the “effects induced from administration” value with higher animals was “dystropy, rigidity, tremor, convulsion and the like are induced”. For the same compound, the “agonist for glutamic acid” value in the data set with glutamic acid is “extremely strong agonist”.

The values above are taken from patent US4644063A, “1,3-oxazolidine-2-one derivatives” (Nippon Chemiphar Co., Ltd., priority 1984, dated 1987).
